Columns and labels:
IL-17A/A = molecular target: T1, IL-17A/A (Homo sapiens, UniProt Q16552); assay: IL-17A/A HEK-Blue cell assay (SEAP reporter); type: cell-based; conditions: HEK-Blue IL-17A reporter cells, IL17A/A 5 ng/mL, 20 hours, SEAP read at A630; read-out: HEK-Blue IL17AA (IC50 for IL-17A/A inhibition)
T1 construct: purchased Genscript Z03228
T1 sequence (Q16552 24-155): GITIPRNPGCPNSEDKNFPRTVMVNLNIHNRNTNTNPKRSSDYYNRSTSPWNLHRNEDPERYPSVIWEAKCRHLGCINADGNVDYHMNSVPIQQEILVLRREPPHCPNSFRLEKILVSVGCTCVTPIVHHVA

IL-17A/F = molecular target: T2, IL-17A/F (Homo sapiens, UniProt Q16552+Q96PD4); assay: IL-17A/F HEK-Blue cell assay (SEAP reporter); type: cell-based; conditions: HEK-Blue IL-17A reporter cells, IL17A/F 5 ng/mL, 20 hours, SEAP read at A630; read-out: HEK-Blue IL17AF (IC50 for IL-17A/F inhibition)
T2 construct: purchased R&D Systems
T2 sequence (Q16552 24-155): T1 sequence (Q16552 24-155)
T2 sequence (Q96PD4 31-163): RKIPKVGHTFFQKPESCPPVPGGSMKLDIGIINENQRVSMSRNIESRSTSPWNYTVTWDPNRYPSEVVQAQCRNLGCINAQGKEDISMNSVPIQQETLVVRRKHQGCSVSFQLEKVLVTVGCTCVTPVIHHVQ

SMILES | IC50 (IL-17A/A) [µM] | IC50 (IL-17A/F) [µM]
CCc1nonc1C(=O)N[C@H](c1cn2nc(C[C@H]3C[C@@H](C(F)(F)F)CNC3=O)c(C3CCOCC3)nc2n1)C1CC2(C1)CC(F)(F)C2 [Compound 315, N—((S)-(6,6-difluorospiro[3.3]heptan-2-yl)(2-(((3R,5R)-2-oxo-5-(trifluoromethyl)piperidin-3-yl)methyl)-3-(tetrahydro-2H-pyran-4-yl)imidazo[1,2-b][1,2,4]triazin-6-yl)methyl)-4-ethyl-1,2,5-oxadiazole-3-carboxamide] | < 0.1 | > 1
Cc1nonc1C(=O)N[C@H](c1cn2nc(C[C@H]3C[C@@H](C(F)(F)F)CNC3=O)c(C3CCOCC3)nc2n1)[C@H]1C[C@H]2C[C@H]2C1 [Compound 316, N—((S)-((1R,3r,5S)-bicyclo[3.1.0]hexan-3-yl)(2-(((3R,5R)-2-oxo-5-(trifluoromethyl)piperidin-3-yl)methyl)-3-(tetrahydro-2H-pyran-4-yl)imidazo[1,2-b][1,2,4]triazin-6-yl)methyl)-4-methyl-1,2,5-oxadiazole-3-carboxamide] | 0.1 to 1 | > 1
CCc1nonc1C(=O)N[C@H](c1cn2nc(C[C@H]3C[C@@H](C(F)(F)F)CNC3=O)c(C3CCOCC3)nc2n1)[C@H]1C[C@H]2C[C@H]2C1 [Compound 317, N—((S)-((1R,3r,5S)-bicyclo[3.1.0]hexan-3-yl)(2-(((3R,5R)-2-oxo-5-(trifluoromethyl)piperidin-3-yl)methyl)-3-(tetrahydro-2H-pyran-4-yl)imidazo[1,2-b][1,2,4]triazin-6-yl)methyl)-4-ethyl-1,2,5-oxadiazole-3-carboxamide] | 0.1 to 1 | > 1
Cc1nonc1C(=O)N[C@H](c1cn2nc(C[C@H]3C[C@@H](C(F)(F)F)CNC3=O)c(C3CCOCC3)nc2n1)[C@H]1C[C@H](C2CC2)C1 [Compound 318, N—((S)-((1r,3S)-3-cyclopropylcyclobutyl)(2-(((3R,5R)-2-oxo-5-(trifluoromethyl)piperidin-3-yl)methyl)-3-(tetrahydro-2H-pyran-4-yl)imidazo[1,2-b][1,2,4]triazin-6-yl)methyl)-4-methyl-1,2,5-oxadiazole-3-carboxamide] | < 0.1 | > 1
CCc1nonc1C(=O)N[C@H](c1cn2nc(C[C@H]3C[C@@H](C(F)(F)F)CNC3=O)c(C3CCOCC3)nc2n1)[C@H]1C[C@H](C2CC2)C1 [Compound 319, N—((S)-((1r,3S)-3-cyclopropylcyclobutyl)(2-(((3R,5R)-2-oxo-5-(trifluoromethyl)piperidin-3-yl)methyl)-3-(tetrahydro-2H-pyran-4-yl)imidazo[1,2-b][1,2,4]triazin-6-yl)methyl)-4-ethyl-1,2,5-oxadiazole-3-carboxamide] | < 0.1 | > 1
Cn1nccc1C(=O)N[C@H](c1cn2nc(C[C@H]3C[C@@H](C(F)(F)F)CNC3=O)c(C3CCOCC3)nc2n1)C(C1CC1)C1CC1 [Compound 320, N—((S)-2,2-dicyclopropyl-1-(2-(((3R,5R)-2-oxo-5-(trifluoromethyl)piperidin-3-yl)methyl)-3-(tetrahydro-2H-pyran-4-yl)imidazo[1,2-b][1,2,4]triazin-6-yl)ethyl)-1-methyl-1H-pyrazole-5-carboxamide] | < 0.1 | 0.1 to 1
CCn1nccc1C(=O)N[C@H](c1cn2nc(C[C@H]3CC(F)(F)CNC3=O)c(C3CCOCC3)nc2n1)C(C1CC1)C1CC1 [Compound 323] | < 0.1 | > 1
CCn1nccc1C(=O)N[C@H](c1cn2nc(C[C@H]3C[C@@H](C(F)(F)F)CNC3=O)c(N3CCOCC3)nc2n1)C1CCCCC1 [Compound 326, N—((S)-cyclohexyl(3-morpholino-2-(((3R,5R)-2-oxo-5-(trifluoromethyl)piperidin-3-yl)methyl)imidazo[1,2-b][1,2,4]triazin-6-yl)methyl)-1-ethyl-1H-pyrazole-5-carboxamide] | < 0.1 | 0.1 to 1
CCc1nonc1C(=O)N[C@H](c1cn2nc(C[C@H]3C[C@@H](C(F)(F)F)CNC3=O)c(N3CCOCC3)nc2n1)C1CCCCC1 [Compound 327, N—((S)-cyclohexyl(3-morpholino-2-(((3R,5R)-2-oxo-5-(trifluoromethyl)piperidin-3-yl)methyl)imidazo[1,2-b][1,2,4]triazin-6-yl)methyl)-4-ethyl-1,2,5-oxadiazole-3-carboxamide] | < 0.1 | > 1
CCn1nccc1C(=O)N[C@H](c1cn2nc(C[C@@H]3CC(F)(F)CNC3=O)c(C3CCOCC3)nc2n1)C(C1CC1)C1CC1 [Compound 328] | < 0.1 | 0.1 to 1
CCn1nccc1C(=O)N[C@H](c1cn2nc(C[C@H]3C[C@@H](C(F)(F)F)CNC3=O)c(CNCC(F)(F)F)nc2n1)C1CCC(F)(F)CC1 [Compound 331, N—((S)-(4,4-difluorocyclohexyl)(2-(((3R,5R)-2-oxo-5-(trifluoromethyl)piperidin-3-yl)methyl)-3-(((2,2,2-trifluoroethyl)amino)methyl)imidazo[1,2-b][1,2,4]triazin-6-yl)methyl)-1-ethyl-1H-pyrazole-5-carboxamide] | < 0.1 | 0.1 to 1
CCn1nccc1C(=O)N[C@H](c1cn2nc(C[C@H]3C[C@@H](C(F)(F)F)CNC3=O)c(CN3CC(F)(F)C3)nc2n1)C1CCC(F)(F)CC1 [Compound 332, N—((S)-(3-((3,3-difluoroazetidin-1-yl)methyl)-2-(((3R,5R)-2-oxo-5-(trifluoromethyl)piperidin-3-yl)methyl)imidazo[1,2-b][1,2,4]triazin-6-yl)(4,4-difluorocyclohexyl)methyl)-1-ethyl-1H-pyrazole-5-carboxamide] | < 0.1 | > 1
CCn1nccc1C(=O)N[C@H](c1cn2nc(C[C@H]3C[C@@H](C(F)(F)F)CNC3=O)c(CN3CCC(F)(F)C3)nc2n1)C1CCC(F)(F)CC1 [Compound 333, N—((S)-(4,4-difluorocyclohexyl)(3-((3,3-difluoropyrrolidin-1-yl)methyl)-2-(((3R,5R)-2-oxo-5-(trifluoromethyl)piperidin-3-yl)methyl)imidazo[1,2-b][1,2,4]triazin-6-yl)methyl)-1-ethyl-1H-pyrazole-5-carboxamide] | < 0.1 | > 1

Second part, the compound after the results:

IC50 (IL-17A/A) [µM] | IC50 (IL-17A/F) [µM] | SMILES
< 0.1 | 0.1 to 1 | CCn1nccc1C(=O)N[C@H](c1cn2nc(C[C@H]3C[C@@H](C(F)(F)F)CNC3=O)c(Cn3ccnc3)nc2n1)C1CCC(F)(F)CC1 [Compound 334, N—((S)-(3-((1H-imidazol-1-yl)methyl)-2-(((3R,5R)-2-oxo-5-(trifluoromethyl)piperidin-3-yl)methyl)imidazo[1,2-b][1,2,4]triazin-6-yl)(4,4-difluorocyclohexyl)methyl)-1-ethyl-1H-pyrazole-5-carboxamide]
< 0.1 | 0.1 to 1 | CCn1nccc1C(=O)N[C@H](c1cn2nc(C[C@H]3C[C@@H](C(F)(F)F)CNC3=O)c(CN(C)CC(F)(F)F)nc2n1)C1CCC(F)(F)CC1 [Compound 335, N—((S)-(4,4-difluorocyclohexyl)(3-((methyl(2,2,2-trifluoroethyl)amino)methyl)-2-(((3R,5R)-2-oxo-5-(trifluoromethyl)piperidin-3-yl)methyl)imidazo[1,2-b][1,2,4]triazin-6-yl)methyl)-1-ethyl-1H-pyrazole-5-carboxamide]
< 0.1 | 0.1 to 1 | CCn1nccc1C(=O)N[C@H](c1cn2nc(C[C@H]3C[C@@H](C(F)(F)F)CNC3=O)c(CN3CC(C(F)(F)F)C3)nc2n1)C1CCC(F)(F)CC1 [Compound 336, N—((S)-(4,4-difluorocyclohexyl)(2-(((3R,5R)-2-oxo-5-(trifluoromethyl)piperidin-3-yl)methyl)-3-((3-(trifluoromethyl)azetidin-1-yl)methyl)imidazo[1,2-b][1,2,4]triazin-6-yl)methyl)-1-ethyl-1H-pyrazole-5-carboxamide]
< 0.1 | > 1 | CCn1nccc1C(=O)N[C@H](c1cn2nc(C[C@H]3C[C@@H](C(F)(F)F)CNC3=O)c(CN3CC(C)(F)C3)nc2n1)C1CCC(F)(F)CC1 [Compound 337, N—((S)-(4,4-difluorocyclohexyl)(3-((3-fluoro-3-methylazetidin-1-yl)methyl)-2-(((3R,5R)-2-oxo-5-(trifluoromethyl)piperidin-3-yl)methyl)imidazo[1,2-b][1,2,4]triazin-6-yl)methyl)-1-ethyl-1H-pyrazole-5-carboxamide]
< 0.1 | > 1 | CCn1nccc1C(=O)N[C@H](c1cn2nc(C[C@H]3C[C@@H](C(F)(F)F)CNC3=O)c(CN3C(C)CC3C)nc2n1)C1CCC(F)(F)CC1 (stereo partly drawn) [Compound 338, N-((1S)-(4,4-difluorocyclohexyl)(3-((2,4-dimethylazetidin-1-yl)methyl)-2-(((3R,5R)-2-oxo-5-(trifluoromethyl)piperidin-3-yl)methyl)imidazo[1,2-b][1,2,4]triazin-6-yl)methyl)-1-ethyl-1H-pyrazole-5-carboxamide]
0.1 to 1 | > 1 | CCn1nccc1C(=O)N[C@H](c1cn2nc(C[C@H]3C[C@@H](C(F)(F)F)CNC3=O)c(CN3CC4(CC4)C3)nc2n1)C1CCC(F)(F)CC1 [Compound 339, N—((S)-(3-((5-azaspiro[2.3]hexan-5-yl)methyl)-2-(((3R,5R)-2-oxo-5-(trifluoromethyl)piperidin-3-yl)methyl)imidazo[1,2-b][1,2,4]triazin-6-yl)(4,4-difluorocyclohexyl)methyl)-1-ethyl-1H-pyrazole-5-carboxamide]

— patent US20260226068A1, “IMIDAZOTRIAZINE IL-17A MODULATORS AND USES THEREOF” (DICE ALPHA, INC., priority 2023, published 2026)
